Experimental data from patent publication US6894073B2, “Use of diterpene compound as a therapeutic agent of inflammation, immune disease or cancer” (Korea Research Institute of Bioscience and Biotechnology, priority 2000, dated 2005).

Columns and labels:
COX-2 mRNA = COX-2 mRNA expression, RT-PCR, LPS-stimulated Raw 264.7 cells; assay type: cell-based, murine
Procedure: Raw 264.7 murine macrophage cells were treated simultaneously with 1 μg/ml concentrations of LPS and 0.1 μg/ml, 0.3 μg/ml, 1 μg/ml, and 3 μg/ml concentrations of kamebakaurin and were incubated for 6 hours at 37° C. in a 5% CO2 incubator. After isolation of total RNA, reverse transcriptase-polymerase chain reaction (RT-PCR) was performed using said RNA as a template and primer pairs represented by SEQ. ID NO. 3 and 4 for iNOS gene and primer pairs represented by SEQ. ID NO. 5 and 6 for COX-2.

Bcl-2 = Bcl-2 expression, Western blot, MCF-7 and HT-1080 cells; assay type: cell-based; conditions: 1, 5, 10 μg/ml, 20 ng/ml TNF-α 3 hours
Procedure: MCF-7 cells and HT-1080 cells were pretreated for 30 minutes with 1 μg/ml, 5 μg/ml, and 10 μg/ml concentrations of four kinds of kaurane diterpene compounds, respectively. After that, 20 ng/ml concentrations of TNF-α were treated for three hours to induce the expression of cIAP-1 and cIAP-2 proteins. Protein extract was prepared from cultured cells using buffer solution for protein extraction consisting of 50 mM Tris-HCL (pH 7.5), 1% Nonidet P40, 150 mM NaCl, 1 mM EDTA, 1 mM phenylmethyl sulfonyl fluoride, […]. 50 μg of protein extract of the control and compound-treated groups was applied to the SDS-polyacrylamide gel electrophoresis. After transferring the proteins into the polyvinylidene difluoride membrane, the membrane was blocked with 5% skim milk for three hours, and were reacted with antibodies against cIAP-1, cIAP-2, Bcl-2, and Bax proteins (Santa Cruz Biochemicals). The membrane was washed with PBS and was reacted with secondary antibody conjugated with horseradish peroxidase. After washing again with PBS, the protein was detected by ECL system (Amersham Pharmacia Biotec).

COX-2 protein = COX-2 protein expression, Western blot, LPS-stimulated Raw 264.7 cells; assay type: cell-based, murine; conditions: 0.1-3 μg/ml, LPS 1 μg/ml, 18 hours
Procedure: Raw 264.7 murine macrophage cells were treated simultaneously with 1 μg/ml concentrations of LPS and 0.1 μg/ml, 0.3 μg/ml, 1 μg/ml, and 3 μg/ml concentrations of kamebakaurin and were incubated for 18 hours at 37° C. in a 5% CO2 incubator. After preparing total cell lysates from cultured cells using buffer solution for protein extraction of the Example <7-2>, the expression pattern of proteins was assessed by Western blot analysis.

TNF-α = test: Inhibition of TNF-α production in LPS-stimulated Raw 264.7 cells (enzyme immunometric assay); assay type: cell-based, murine; conditions: for TNF-α: 1 μg/ml LPS, 16 hours
Procedure: To investigate whether kaurane diterpene compounds obtained in Example 1 can inhibit effectively the production of tumor necrosis factor-α (TNF-α), one of the inflammatory mediator, which confers cytotoxic effect and induces the production of prostaglandin and cytokines, the present inventors measured the amount of TNF-α accumulated in the culture medium of LPS-stimulated murine macrophage cells, which were treated with four kaurane diterpene compounds, kamebanin, kamebacetal A, kamebakaurin, or exisanin A.
In detail, Raw 264.7 cells in DMEM medium were seeded to a 96-well plate at a cell density of 1×10^5 cells/well and were incubated for 3 hours at 37° C. in a 5% CO2 incubator. To each well were added 1 μg/ml of LPS and 3 μg/ml, 0.3 μg/ml, and 0.03 μg/ml concentrations of kaurane diterpene compounds of the present invention and was incubated for 16 hours. After collecting supernatant by centrifugation, the amount of TNF-α in the culture medium was quantified by enzyme immunometric assay.

nitric oxide (NO) = test: Inhibition of NO production (nitrite, Griess reagent) in LPS-stimulated Raw 264.7 macrophage cells; assay type: cell-based, murine; conditions: for NO: 1 μg/ml LPS, 24 hours
Procedure: To investigate whether kaurane diterpene compounds obtained in Example 1 can inhibit the production of nitric oxide (NO) which induces apoptosis of the immune and neuron cells, the present inventors measured the amount of nitrite (NO2) accumulated in the culture medium of LPS-stimulated murine macrophage cells, which were treated with four kaurane diterpene compounds, kamebanin, kamebacetal A, kamebakaurin, or exisanin A.
In detail, Raw 264.7 murine macrophage cells (ATCC TIB-71) in DMEM medium were seeded to 96-well plate at a cell density of 1×10^5 cells/well and incubated for 3 hours at 37° C., 5% CO2 incubator. To induce NO synthesis in the macrophage cell, 1 μg/ml of LPS and 3 μg/ml, 0.3 μg/ml, and 0.03 μg/ml of kaurane diterpene compounds of the present invention were added to the medium and the plate was incubated for 24 hours. The amount of NO2, the final oxidation product of NO induced by the LPS in the medium was measured as followed. After collecting and centrifuging incubated medium, 100 μl of Griess reagent was added into 100 μl of each culture medium. Then, the medium was incubated for ten minutes at room temperature and absorbance at 550 nm wavelength was measured. Griess reagent was prepared by mixing a solution, wherein 1% sulfanilamide was dissolved in 5% phosphoric acid, and a solution of 0.1% naphyhylethylenediamine-HCl by a 1:1 ratio. To measure the amount of standard NO synthesis, NaNO2 was serially diluted and the absorbance was measured after reacting it with Griess reagent. From this, the standard curve for the amount of NO production was obtained. The amount of NO production in the culture medium treated with each compound was estimated using standard curve for NO determination.

adjuvant arthritis model = test: Adjuvant arthritis model, paw volume; assay type: in vivo, Sprague-Dawley rat; conditions: for Inhibition rate (%) of arthritis: day 16-22, paw volume on 23rd day
Procedure: Finding the inhibitory effect of kaurane diterpene compounds on the production of NO, prostaglandin, and TNF, and on the activation of NF-κB in the murine macrophage cells stimulated by LPS, the present inventors investigated the pharmacological efficacy of kaurane diterpene compounds with a adjuvant arthritis model according to the method of Futaki et al. (General Pharmacology, 1993, 24, 105-110). To prepare animal model of the arthritis, 0.05 ml of 0.1% Mycobacterium butyricum suspended in Freud adjuvant (Sigma, USA) was injected intradermally to the left hind paw of the male Sprague-Dawley rat of 180 g weight. On the fifteenth day after injection, the volume of the right paw of the rats was measured using plethysmometer (Ugo-Basile, Italy), and only the rats having arthritis on the right leg were selected. Thereafter, the selected rats were divided into four groups, six rats per each group. Four kinds of kaurane diterpene compounds of the present invention were administered orally to each groups everyday from the sixteenth day to twenty-second day with doses of 3 mg/kg/day, 10 mg/kg/day, and 20 mg/kg/day in the form of the suspended solution with 0.1% methylcellulose. The inhibition rate of arthritis was calculated by comparing the volume of the paw with that of the control on the 23rd day.

[1] = Mus musculus, RAW264.7, LPS-stimulated Raw 264.7 cells

C=C1C(=O)[C@@]23[C@H](O)C[C@@H]4C(C)(C)CC[C@H](O)[C@@]4(CO)[C@@H]2CC[C@@H]1[C@H]3O [Kamebakaurin, kamebakaurin]
Expression of COX mRNA (COX-2 mRNA; 1 μg/ml): inhibited
Expression of COX-2 mRNA (COX-2 mRNA; 3 μg/ml, LPS 1 μg/ml, 6 hours): completely suppressed
Expression of Bcl-2 (Bcl-2): not inhibited
Expression of COX-2 protein (COX-2 protein): suppressed dose-dependently
TNF-α (TNF-α; 0.03 μg/ml compound): 1407.0 ± 255.6 pg/mL
TNF-α (TNF-α; 0.3 μg/ml compound): 654.4 ± 29.4 pg/mL
TNF-α (TNF-α; 3 μg/ml compound): 29.6 ± 5.3 pg/mL
inhibition at 0.03 µg/mL (TNF-α; Mus musculus, RAW264.7, 0.03 μg/ml compound, read-out: Inhibition rate (%) of TNF-α production): 15.9%
inhibition at 0.3 µg/mL (TNF-α; Mus musculus, RAW264.7, 0.3 μg/ml compound, read-out: Inhibition rate (%) of TNF-α production): 61.3%
inhibition at 3 µg/mL (TNF-α; Mus musculus, RAW264.7, 3 μg/ml compound, read-out: Inhibition rate (%) of TNF-α production): 99.2%
IC50 (TNF-α; [1]): 0.53 µM
NO (nitric oxide (NO); 0.03 μg/ml compound): 29.1 ± 4.2 µM
NO (nitric oxide (NO); 0.3 μg/ml compound): 16.1 ± 2.8 µM
NO (nitric oxide (NO); 3 μg/ml compound): 3.6 ± 0.7 µM
inhibition at 0.03 µg/mL (nitric oxide (NO); Mus musculus, RAW264.7, 0.03 μg/ml compound, read-out: Inhibition rate (%) of NO production): 44.2%
inhibition at 0.3 µg/mL (nitric oxide (NO); Mus musculus, RAW264.7, 0.3 μg/ml compound, read-out: Inhibition rate (%) of NO production): 72.4%
inhibition at 3 µg/mL (nitric oxide (NO); Mus musculus, RAW264.7, 3 μg/ml compound, read-out: Inhibition rate (%) of NO production): 99.3%
IC50 (nitric oxide (NO); [1]): 0.15 µM
Inhibition rate (%) of arthritis (adjuvant arthritis model; 3 mg/kg/day oral): 35 ± 19%
Inhibition rate (%) of arthritis (adjuvant arthritis model; 10 mg/kg/day oral): 59 ± 11%
Inhibition rate (%) of arthritis (adjuvant arthritis model; 20 mg/kg/day oral): 71 ± 17%
Suppression of arthritis (in words) (adjuvant arthritis model; 3, 10, 20 mg/kg/day oral): suppressed dose-dependently
